Among the data in patent publication US11214569B2, “Prodrugs of quinuclidine ring-containing muscarinic agonists and compositions and methods thereof” (Lenz Therapeutics, Inc., priority 2018, dated 2022) are Solubility values, retold here.

This data set in a line: pH vs. solution stability of phosphono oxylmethyl prodrugs. Type of data set: physicochemical.

With phosphono oxylmethyl aceclidine, the Solubility entry by setting is: (pH of solution 5.22) “Best”; (pH of solution 6.22) “Fair”; (pH of solution 7.22) “Poor”.
With phosphono oxymethyl talsaclidine, the Solubility entry reads like this: (pH of solution 5.45) “Best”; (pH of solution 6.45) “Fair”; (pH of solution 7.45) “Poor”.
